Data on 1 molecule can be found in paper PMC9603521, “WYBQ-4: a New Bactericidal Agent against Methicillin-Resistant Staphylococcus aureus” (Microbiology Spectrum, 2022).

One test deals with Enterococcus faecalis. Briefly: MIC by broth microdilution (CLSI). The test is classed as cell-based. The conditions noted are these: compared to that against Staphylococcus. (In general: In broth dilution the organism is exposed to a series of concentrations in liquid medium.)
The subject of test [1] is MRSA USA300. Briefly: Mouse intramuscular (thigh) infection model. The test is classed as in vivo. The note with it: MRSA USA300-infected mice; 300 mg/kg subcutaneous; 24 h after infection. As for the experimental part:
(§1) The therapeutic effects of WYBQ-4 on thigh infections induced by MRSA USA300 and MSSA 29213 in mice (6-week-old female C57BL/6J mice) were evaluated. […] Mice were infected by intramuscular injection of 0.1 mL of S. aureus culture (5 × 10^5 CFU) into the right thigh. […] Then, 24 h after infection, mice were euthanized, and the right thighs were aseptically removed, weighed, homogenized, and applied to nonresistant BHI plates for CFU counting.

Test [2] has as its system MSSA 29213. Put plainly: Mouse intramuscular (thigh) infection model. The note with it: MSSA 29213-infected mice; 300 mg/kg subcutaneous; 24 h after infection. The test is classed as in vivo. As for the experimental part: as §1
In test [3] the test system is MRSA USA300. Briefly: Time-kill curve. The note with it: 8× MIC, at 9 h. Type of test: cell-based, Staphylococcus aureus. As for the experimental part:
(§2) The bactericidal activities of WYBQ-4 against MSSA 29213 and MRSA USA300 were determined in vitro. Overnight cultures were diluted to 10^6 CFU (CFU)/mL in 10 mL of fresh Mueller-Hinton broth (MHB) medium. […] After incubation at 37°C with shaking for 0 to 24 h, 100-μL samples from each time point were subcultured on MHB agar plates and incubated at 37°C for 24 h. MSSA 29213 and MRSA USA300 without WYBQ-4 were used as control groups. Colony numbers were counted to calculate the CFU, and the data were expressed as log10 CFU. Three biological replicates were performed for the experiment.

In test [4] the test system is MSSA 29213. Put plainly: Time-kill curve. The test is classed as cell-based, Staphylococcus aureus. The conditions noted are these: 4× MIC, at 9 h. As for the experimental part: as §2
The test system of a further test is MSSA ATCC 29213. Put plainly: Postantibiotic effect (viable plate count). Type of test: cell-based, Staphylococcus aureus. The conditions noted are these: 1 h exposure. As for the experimental part: The postantibiotic effect (PAE) of WYBQ-4 against MSSA 29213 was determined in MHB agar using the viable plate count method ([39]). […] After incubation at 37°C for 1 h, WYBQ-4 was removed by centrifugation and washing with phosphate-buffered saline (PBS). Subsequently, fresh MHB medium was added to resuspend the bacteria, and the mixture was incubated at 37°C with shaking. The number of colonies was counted by taking 10 μL of bacteria at 1-h intervals and applying them to BHI agar plates after appropriate dilution. PAE duration was calculated as follows: time (h) for bacteria to return to log-phase growth after drug treatment – time (h) for the control group to return to log-phase growth ([40]).

The subject of test [5] is MRSA USA300. Briefly: Mouse systemic infection model. Type of test: in vivo, mice. The note with it: USA300 5 × 10^7 CFU, 150 mg/kg, tail intravenous injection at 0 and 3 h, 7-day. How it is done:
(§3) The S. aureus-induced systemic infection model of mice (6-week-old female C57BL/6J mice) was established as previously described ([46]). […] The mice infected in the same way were treated with physiological saline as an infection control group. The mock group was not infected with S. aureus, and the 7-day mortality of the mice in each group was calculated.

The test system of the next test is clinical isolate SA28. Briefly: Mouse systemic infection model. The test is classed as in vivo, mice. The note with it: different doses. As for the experimental part: as §3

`C#CCO[C@@]1(NC(=O)CSc2cccc(C)c2)C(=O)N2C(C(=O)O)=C(CSc3nnnn3C)CSC21` (stereo partly drawn) [WYBQ-4]: the antibacterial activity entry in the test with Enterococcus faecalis was “weak”. Further, the “bacterial load in the thighs” value was determined as 5.97 log10 CFU/g in the test on MRSA USA300 [1] and 5.21 log10 CFU/g with MSSA 29213 [2]. Also, the time-dependent killing effect entry with MRSA USA300 [3] and in the test on MSSA 29213 [4] was “complete sterilization” throughout. Further, the results for the PAE in the test on MSSA ATCC 29213 (2× MIC) and with MSSA ATCC 29213 (8× MIC) were 1.5 h and 3.5 h, respectively. The same molecule returned a survival rate in the test with MRSA USA300 [5] of 100%. Further, the “protection in systemic infection” value with clinical isolate SA28 was “had a protective effect”.
